Several values for one entry are separate records, joined by “and”; a condition that tells them apart may be missing. Identical values can stand only once.
Test system: U87 tumor
Assay: Biodistribution ([^18F]JHU1221823), carrier / specific activity study
Type: in vivo, mouse
Conditions: individual mouse
Source text: Biodistribution of Representative Compounds

[1] = + 0.05 nmole carrier, 60 min post injection
[2] = + 0.1 nmole carrier, 60 min post injection
[3] = + 0.25 nmole carrier, 60 min post injection
[4] = NOD/SCID, U87 tumor, Carrier 350 (350 mCi/μmol), 60 min post injection
[5] = NOD/SCID, U87 tumor, Carrier 700, 60 min post injection

N#C[C@@H]1CCCN1C(=O)CNC(=O)c1ccnc2ccc(OCCCNC(=O)CCOCCOCCOCCOCCNC(=O)[C@H](CCCCNC(=O)c3ccc([18F])nc3)NC(=O)CN3CCN(CC(=O)O)CCN(CC(=O)O)CCN(CC(=O)O)CC3)cc12 [[^18F]JHU1221823]
Bladder % ID/g (+ 0.01 nmole carrier): 1.82 % ID/g and 2.18 % ID/g
Blood % ID/g (+ 0.01 nmole carrier): 11.19 % ID/g and 11.39 % ID/g
Brain % ID/g (+ 0.01 nmole carrier): 0.32 % ID/g and 0.28 % ID/g
Fat % ID/g (+ 0.01 nmole carrier): 0.23 % ID/g and 0.44 % ID/g
Femur % ID/g (+ 0.01 nmole carrier): 3.05 % ID/g and 4.01 % ID/g
Heart % ID/g (+ 0.01 nmole carrier): 4.74 % ID/g and 4.50 % ID/g
Kidney % ID/g (+ 0.01 nmole carrier): 2.82 % ID/g and 3.11 % ID/g
Large intestine % ID/g (+ 0.01 nmole carrier): 1.60 % ID/g and 1.63 % ID/g
Liver % ID/g (+ 0.01 nmole carrier): 2.78 % ID/g and 3.40 % ID/g
Lung % ID/g (+ 0.01 nmole carrier): 6.08 % ID/g and 6.21 % ID/g
Muscle % ID/g (+ 0.01 nmole carrier): 2.03 % ID/g and 1.73 % ID/g
Pancreas % ID/g (+ 0.01 nmole carrier): 4.01 % ID/g and 4.14 % ID/g
Salivary gland % ID/g (+ 0.01 nmole carrier): 7.47 % ID/g and 7.48 % ID/g
Small intestine % ID/g (+ 0.01 nmole carrier): 2.22 % ID/g and 2.17 % ID/g
Spleen % ID/g (+ 0.01 nmole carrier): 1.88 % ID/g and 2.13 % ID/g
Stomach % ID/g (+ 0.01 nmole carrier): 1.33 % ID/g and 1.65 % ID/g
Tumor % ID/g (+ 0.01 nmole carrier): 1.88 % ID/g and 2.86 % ID/g
Bladder % ID/g [1]: 6.14 % ID/g and 2.43 % ID/g
Blood % ID/g [1]: 7.42 % ID/g and 7.67 % ID/g
Brain % ID/g [1]: 0.20 % ID/g and 0.21 % ID/g
Fat % ID/g [1]: 0.94 % ID/g and 0.61 % ID/g
Femur % ID/g [1]: 2.83 % ID/g and 3.67 % ID/g
Heart % ID/g [1]: 3.03 % ID/g and 3.04 % ID/g
Kidney % ID/g [1]: 2.02 % ID/g and 2.55 % ID/g
Large intestine % ID/g [1]: 1.48 % ID/g and 1.58 % ID/g
Liver % ID/g [1]: 1.92 % ID/g and 2.34 % ID/g
Lung % ID/g [1]: 4.05 % ID/g and 4.16 % ID/g
Muscle % ID/g [1]: 1.47 % ID/g and 2.20 % ID/g
Pancreas % ID/g [1]: 4.01 % ID/g and 6.69 % ID/g
Salivary gland % ID/g [1]: 10.22 % ID/g and 11.63 % ID/g
Small intestine % ID/g [1]: 1.46 % ID/g and 2.18 % ID/g
Spleen % ID/g [1]: 1.37 % ID/g and 1.62 % ID/g
Stomach % ID/g [1]: 1.07 % ID/g and 1.48 % ID/g
Tumor % ID/g [1]: 2.59 % ID/g and 4.26 % ID/g
Bladder % ID/g [2]: 1.62 % ID/g and 1.87 % ID/g
Blood % ID/g [2]: 3.88 % ID/g and 4.32 % ID/g
Brain % ID/g [2]: 0.08 % ID/g and 0.17 % ID/g
Fat % ID/g [2]: 2.17 % ID/g and 1.13 % ID/g
Femur % ID/g [2]: 3.44 % ID/g and 4.00 % ID/g
Heart % ID/g [2]: 1.80 % ID/g and 1.87 % ID/g
Kidney % ID/g [2]: 2.03 % ID/g and 2.00 % ID/g
Large intestine % ID/g [2]: 2.91 % ID/g and 1.79 % ID/g
Liver % ID/g [2]: 1.01 % ID/g and 1.30 % ID/g
Lung % ID/g [2]: 2.31 % ID/g and 2.83 % ID/g
Muscle % ID/g [2]: 1.69 % ID/g and 2.25 % ID/g
Pancreas % ID/g [2]: 4.18 % ID/g and 5.17 % ID/g
Salivary gland % ID/g [2]: 7.28 % ID/g and 9.35 % ID/g
Small intestine % ID/g [2]: 1.66 % ID/g and 1.63 % ID/g
Spleen % ID/g [2]: 0.91 % ID/g and 1.01 % ID/g
Stomach % ID/g [2]: 0.89 % ID/g and 1.12 % ID/g
Tumor % ID/g [2]: 5.48 % ID/g and 4.73 % ID/g
Bladder % ID/g [3]: 3.04 % ID/g and 1.98 % ID/g
Blood % ID/g [3]: 1.76 % ID/g and 2.03 % ID/g
Brain % ID/g [3]: 0.08 % ID/g
Fat % ID/g [3]: 0.65 % ID/g and 0.37 % ID/g
Femur % ID/g [3]: 3.97 % ID/g and 4.56 % ID/g
Heart % ID/g [3]: 0.91 % ID/g
Kidney % ID/g [3]: 1.70 % ID/g and 2.15 % ID/g
Large intestine % ID/g [3]: 0.62 % ID/g and 0.68 % ID/g
Liver % ID/g [3]: 0.73 % ID/g and 0.77 % ID/g
Lung % ID/g [3]: 1.17 % ID/g and 1.57 % ID/g
Muscle % ID/g [3]: 1.32 % ID/g and 1.19 % ID/g
Pancreas % ID/g [3]: 2.11 % ID/g and 1.42 % ID/g
Salivary gland % ID/g [3]: 3.78 % ID/g and 2.85 % ID/g
Small intestine % ID/g [3]: 0.75 % ID/g and 1.07 % ID/g
Spleen % ID/g [3]: 0.44 % ID/g and 0.48 % ID/g
Stomach % ID/g [3]: 0.61 % ID/g and 0.77 % ID/g
Tumor % ID/g [3]: 3.93 % ID/g and 3.11 % ID/g
Bladder % ID/g [4]: 2.09 % ID/g and 6.57 % ID/g
Blood % ID/g [4]: 3.99 % ID/g and 4.29 % ID/g
Brain % ID/g [4]: 0.10 % ID/g and 0.09 % ID/g
Fat % ID/g [4]: 0.89 % ID/g and 0.82 % ID/g
Femur % ID/g [4]: 3.67 % ID/g and 3.18 % ID/g
Heart % ID/g [4]: 2.25 % ID/g and 2.02 % ID/g
Kidney % ID/g [4]: 2.00 % ID/g and 2.27 % ID/g
Large intestine % ID/g [4]: 2.18 % ID/g and 1.97 % ID/g
Liver % ID/g [4]: 1.71 % ID/g and 1.81 % ID/g
Lung % ID/g [4]: 2.51 % ID/g and 2.98 % ID/g
Muscle % ID/g [4]: 2.02 % ID/g and 2.04 % ID/g
Pancreas % ID/g [4]: 10.66 % ID/g and 9.69 % ID/g
Salivary gland % ID/g [4]: 9.63 % ID/g and 9.35 % ID/g
Small intestine % ID/g [4]: 2.86 % ID/g and 1.91 % ID/g
Spleen % ID/g [4]: 1.60 % ID/g and 1.01 % ID/g
Stomach % ID/g [4]: 1.47 % ID/g
Tumor % ID/g [4]: 8.22 % ID/g and 9.06 % ID/g
Bladder % ID/g [5]: 8.20 % ID/g
Blood % ID/g [5]: 5.82 % ID/g
Brain % ID/g [5]: 0.16 % ID/g
Fat % ID/g [5]: 0.90 % ID/g
Femur % ID/g [5]: 2.41 % ID/g
Heart % ID/g [5]: 3.48 % ID/g
Kidney % ID/g [5]: 2.45 % ID/g
Large intestine % ID/g [5]: 2.26 % ID/g
